How the values were obtained:
blood pressure = assay: Tests for action on the cardiovascular system: hypotensive activity (activity in method 1, rats or cats, or method 2), reported in words; type: in vivo, rat, cat; settings: standard test procedure, result in words
Procedure: Tests for action on the cardiovascular system were conducted according to one of the following procedures:
Cats were anaesthetised with pentobarbitone sodium (30 mg/kg) and the cephalic vein, femoral and carotid arteries and trachea were cannulated. The carotid cannula was introduced into the left ventricle and the femoral cannula into the aorta. Blood pressure and heart rate were recorded from the aortic cannula and left ventricular pressure from the carotid cannula. The test compunds were administered intravenously (0.1-25.6 mg/kg).
Method 2 (hypertensive rats)
Male or female rats are rendered hypertensive by applying a figure of 8 ligature around one kidney and contralateral nephrectomy. Blood pressure stabilises at a hypertensive level after 6 weeks. Systolic pressure is measured indirectly using a Decker Caudal Plethysmograph A control group of rats is run with each group treated with drug. Each group usually consists of six rats. Drugs are usually administered by the IP or oral routes. Pressures are read prior to drug administration and at two and 24 hours thereafter.

histamine = molecular target: T1, histamine (Cavia porcellus, UniProt P31389); assay: Antihistamine activity by the method of Alps et al.; settings: for antihistamine activity: result in words; for Kb: Table 4, read-out: Antihistamine pA2 (converted)
T1 construct: from tissue

[1] = system: blood pressure and heart rate; assay: Method 1 (rat): hypotensive activity in anaesthetised rats, i.v.; settings: for minimal effective dose: Rattus norvegicus, iv, 0.25 h, read-out: Hypotensive Activity
Procedure: Rats were anaesthetised with pentobarbitone sodium (60 mg/kg) and the jugular vein, trachea and carotid artery were cannulated. […] A decrease in heart rate of more than 30% from control values was considered to be significant bradycardia.

α-adrenoceptor = assay: α-Adrenoceptor antagonism on the guinea pig aortic strip; settings: for α-blockade pA2: Table 4
Description: Carried out on the guinea pig aortic strip [Furchgott and Bhadrakom (1953) J. Pharmac. exp. Ther. 108, 129-143] by the method of Alps et al [Br. J. Pharmac. 1972 44, 52-62].

T1 sequence (P31389 whole entry): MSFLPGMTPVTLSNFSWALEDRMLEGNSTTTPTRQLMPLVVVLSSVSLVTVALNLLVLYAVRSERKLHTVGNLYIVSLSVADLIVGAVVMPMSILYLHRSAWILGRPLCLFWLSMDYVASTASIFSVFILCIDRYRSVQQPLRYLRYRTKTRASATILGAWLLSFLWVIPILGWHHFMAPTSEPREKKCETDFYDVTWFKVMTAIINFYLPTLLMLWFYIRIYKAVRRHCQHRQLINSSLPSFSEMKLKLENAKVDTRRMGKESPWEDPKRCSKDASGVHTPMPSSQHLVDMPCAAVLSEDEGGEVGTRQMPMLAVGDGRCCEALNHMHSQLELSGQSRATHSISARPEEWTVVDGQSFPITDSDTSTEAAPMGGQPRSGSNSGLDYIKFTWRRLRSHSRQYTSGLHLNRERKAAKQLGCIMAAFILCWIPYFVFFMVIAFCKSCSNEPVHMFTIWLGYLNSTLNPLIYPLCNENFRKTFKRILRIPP

## O=C(NC1CCN(CCC2=CCc3ccccc32)CC1)c1ccccc1 [Example 14, 1-[2-(3-Indenyl)ethyl]-4-benzamidopiperidine]
Blood pressure
  hypotensive activity: hypotensive activity
histamine
  antihistamine activity: antihistamine activity
[1]
  minimal effective dose: 6.4 to 12.8 mg/kg

## O=C(NC1CCN(CCCC(O)c2ccc3c(c2)CCCC3)CC1)c1ccccc1 (stereo not drawn) [Example 79, 1-[4-(1',2',3',4'-Tetrahydro-6'-naphthyl)-4-hydroxybutyl]-4-benzamidopiperidine]
Blood pressure
  hypotensive activity: hypotensive activity
α-adrenoceptor
  α-blockade pA2: 6.05
histamine
  Kb: 0.1 µM
[1]
  minimal effective dose: 1.6 to 3.2 mg/kg

## CC(C)(C)c1ccc(C(=O)CCCN2CCC(NC(=O)c3ccccc3)CC2)cc1 [Example 70, 4-Benzamido-1-[4-(4-tert-butyl-phenyl)-4-oxobutyl]piperidine]
Blood pressure
  hypotensive activity: hypotensive activity
α-adrenoceptor
  α-blockade pA2: 6.6
[1]
  minimal effective dose: 0.8 mg/kg

## CC(=O)Nc1ccc(OCC(O)CN2CCC(NC(=O)c3ccccc3)CC2)cc1 (stereo not drawn) [Example 17, 1-[1-(4-Acetamidophenoxy)-2-hydroxyprop-3-yl]-4-benzamidopiperidine]
Blood pressure
  hypotensive activity: hypotensive activity
histamine
  Kb: 0.1 µM
  antihistamine activity: antihistamine activity
[1]
  minimal effective dose: < 30 mg/kg

## O=C(CCN1CCC(NC(=O)c2ccccc2)CC1)c1ccccc1 [Example 69, 4-Benzamido-1-(3-phenyl-3-oxopropyl)piperidine]
Blood pressure
  hypotensive activity: marked hypotensive activity
α-adrenoceptor
  α-blockade pA2: 6.6
[1]
  minimal effective dose: 1.6 to 3.2 mg/kg

## O=C(NC1CCN(CCC(O)c2ccc3c(c2)OCCO3)CC1)c1ccccc1 (stereo not drawn) [Example 92, 1-[3-(1,4-Benzodioxan-6-yl)-3-hydroxypropyl]-4-benzamido piperidine]
Blood pressure
  hypotensive activity: hypotensive activity
α-adrenoceptor
  α-blockade pA2: 6.6
[1]; Table 3, cumulative iv dose, fall in diastolic blood pressure of 30 mm or more for at least 15 min
  hypotensive activity: + ++

## O=C(NC1CCN(CCCCc2ccc(F)cc2)CC1)c1ccccc1 [Example 40, 1-[4-(p-Fluorophenyl)-n-butyl]-4-benzamidopiperidine]
Blood pressure
  hypotensive activity: hypotensive activity
α-adrenoceptor
  α-blockade pA2: 6.4
α-adrenoceptor; result in words
  α-adrenoceptor antagonism: α-adrenoceptor antagonism
histamine
  Kb: 0.0316 µM
  antihistamine activity: anti-histamine activity
[1]
  minimal effective dose: 1.6 to 3.2 mg/kg

## O=C(NC1CCN(CCCC2=CCc3ccccc32)CC1)c1ccccc1 [Example 15, 1-[3-(3-Indenyl)propyl]-4-benzamidopiperidine]
Blood pressure
  hypotensive activity: hypotensive
α-adrenoceptor
  α-blockade pA2: 7.4
histamine
  antihistamine activity: antihistamine activities
[1]
  minimal effective dose: 6.4 to 12.8 mg/kg

## O=C(CCCN1CCC(NC(=O)c2ccc3c(c2)OCO3)CC1)c1ccccc1 [Example 74, 4-Piperonylamido-1-(4-phenyl-4-oxobutyl)-piperidine]
Blood pressure
  hypotensive activity: hypotensive activity
α-adrenoceptor
  α-blockade pA2: 6.4
[1]
  minimal effective dose: 6.4 to 12.8 mg/kg

## NC1CCN(CCCC(=O)c2ccccc2)CC1 [Example 72, 4-Amino-1-(4-phenyl-4-oxobutyl)piperidine]
α-adrenoceptor
  α-blockade pA2: 6.9

## O=C(NC1CCN(CCCC(c2ccc(F)cc2)c2ccc(F)cc2)CC1)c1ccccc1 [Example 88, 4-(4-Benzamidopiperid-1-yl)-1,1-(di-p-fluorophenyl)butane]
Blood pressure
  hypotensive activity: hypotensive activity
α-adrenoceptor
  α-blockade pA2: 5.9
[1]
  minimal effective dose: 1.6 to 3.2 mg/kg

## O=C(CCCN1CCC(NC(=O)C2CCCCC2)CC1)c1ccccc1 [Example 75, 4-Cyclohexanecarboxamido-1-(4-phenyl-4-oxobutyl)piperidine]
Blood pressure
  hypotensive activity: marked hypotensive activity
α-adrenoceptor
  α-blockade pA2: 6.9
[1]
  minimal effective dose: 6.4 to 12.8 mg/kg

## O=C(NC1CCN(CCc2c[nH]cn2)CC1)c1ccccc1 [Example 96, 1-[2-(4-Imidazolyl)ethyl]-4-benzamidopiperidine]
Blood pressure
  hypotensive activity: hypotensive activity
histamine
  antihistamine activity: anti-histamine activity
[1]
  minimal effective dose: 6.4 to 12.8 mg/kg

## Cc1cc(CN2CCC(NC(=O)c3ccccc3)CC2)c(C)n1-c1ccccc1 [Example 99, 1-(2,5-Dimethyl-1-phenylpyrrol-3-yl-methyl)-4-benzamidopiperidine]
Blood pressure
  hypotensive activity: hypotensive activity
[1]
  minimal effective dose: < 30 mg/kg

## O=C(CCCN1CCC(NC(=O)c2ccc(Cl)cc2)CC1)c1ccccc1 [Example 76, 4-(4-Chlorobenzamido)-1-(4-phenyl-4-oxobutyl)piperidine]
Blood pressure
  hypotensive activity: hypotensive activity
[1]
  minimal effective dose: 6.4 to 12.8 mg/kg

## O=C(NC1CCN(CCc2csc3ccccc23)CC1)c1ccccc1 [Example 100, 1-[2-(3-Benzo[b]thienyl)ethyl]-4-benzamidopiperidine]
Blood pressure
  hypotensive activity: hypotensive activity
histamine
  antihistamine activity: antihistamine activity
[1]
  minimal effective dose: < 30 mg/kg

## COc1ccccc1OCCN1CCC(NC(=O)c2ccccc2)CC1 [Example 68, 1-[2-(2-Methoxyphenoxy)ethyl]-4-benzamidopiperidine]
Blood pressure
  hypotensive activity: hypotensive activity
[1]
  minimal effective dose: 6.4 to 12.8 mg/kg

## O=C(CCCN1CCC(NC(=O)c2ccccc2)CC1)c1ccc2ccccc2c1 [Example 80, 1-[4-(2-Naphthyl)-4-oxobutyl]-4-benzamidopiperidine]
Blood pressure
  hypotensive activity: hypotensive activity
[1]
  minimal effective dose: 1.6 to 3.2 mg/kg

## COc1ccc(CCN2CCC(NC(=O)c3ccccc3Cl)CC2)cc1OC [Example 6, 1-[2-(3,4-Dimethoxyphenyl)ethyl]-4-(2-chlorobenzamido)-piperidine]
Blood pressure
  hypotensive activity: hypotensive activity
[1]
  minimal effective dose: 25.6 mg/kg

## O=C(NC1CCN(CCCCc2ccc3c(c2)CCCC3)CC1)c1ccccc1 [Example 81, 1-[4-(1',2',3',4'-Tetrahydro-6-naphthyl)butyl]-4-benzamidopiperidine]
Blood pressure
  hypotensive activity: hypotensive activity
α-adrenoceptor
  α-blockade pA2: 6.6
[1]
  minimal effective dose: 1.6 to 3.2 mg/kg

## O=C(NC1CCN(CCC2CCCCC2)CC1)c1ccccc1 [Example 1, 1-[2-(Cyclohexyl)ethyl]-4-benzamidopiperidine]
Blood pressure
  hypotensive activity: good hypotensive activity
[1]
  minimal effective dose: 1.6 to 3.2 mg/kg

## O=C(NC1CCN(CCc2ccncc2)CC1)c1ccccc1 [Example 93, 1-[2-(4-Pyridyl)ethyl]-4-benzamidopiperidine]
Blood pressure
  hypotensive activity: marked hypotensive activity
histamine
  antihistamine activity: antihistamine activity
[1]
  minimal effective dose: < 30 mg/kg

## Cc1ccc(CCN2CCC(NC(=O)c3ccccc3)CC2)cc1C [Example 41, 1-[2-(3,4-Dimethylphenyl)ethyl]-4-benzamidopiperidine]
Blood pressure
  hypotensive activity: hypotensive activity
[1]
  minimal effective dose: 6.4 to 12.8 mg/kg

## O=C(CCCN1CCC(NC(=O)c2ccccc2)CC1)c1ccc2c(c1)CCCC2 [Example 58, 1-[4-(1,2,3,4-Tetrahydro-6-naphthyl)-4-oxobutyl]-4-benzamidopiperidine]
Blood pressure
  hypotensive activity: hypotensive activity
α-adrenoceptor
  α-blockade pA2: 6.9
[1]
  minimal effective dose: 1.6 to 3.2 mg/kg

## O=C(NC1CCN(CCOc2ccccc2)CC1)c1ccccc1 [Example 52, 1-(2-Phenoxyethyl)-4-benzamidopiperidine]
Blood pressure
  hypotensive activity: marked hypotensive activity
α-adrenoceptor
  α-blockade pA2: 5.9
[1]
  minimal effective dose: 6.4 to 12.8 mg/kg
